# Measured values reported in patent US20110200535A1, “DAA-PYRIDINE AS PERIPHERAL BENZODIAZEPINE RECEPTOR LIGAND FOR DIAGNOSTIC IMAGING AND PHARMACEUTICAL TREATMENT” (BAYER SCHERING PHARMA AKTIENGESELLSCHAFT, priority 2008, published 2011).
# Tests used:
# [1] = target: T1, peripheral benzodiazepine receptor (PBR) (Rattus norvegicus, UniProt P16257); experiment: Ex vivo autoradiography of brain sections, rat kainic acid induced epilepsy model; type: in vivo; details: rat kainic acid model, 30 min ex vivo autoradiography
# T1 construct: from tissue; host or cells: rat brain (hippocampus, cerebellum) after i.v. tracer injection
# Method: Using a rat kainic acid induced epilepsy model and respective sham controls the accumulation of [^18F]-2d and [^18F]-5d was visualized ex vivo. In brief, epilepsy was induced in rats by injecting kainic acid i.p. At day eight after the start of the kainic acid treatment [^18F]-2d and [^18F]-5d were injected into the tail vein of the rats and their sham treated controls (PBS instead of kainic acid) at a dose of 25.8-35.8 MBq (approximately 1.0 μg) per rat. Thirty minutes after intravenous injection the rats were sacrificed, the brains were taken out, snap frozen and sliced transversally in a cryostat. The slices were exposed to PhosphoImager plates over night. The resulting autoradiographic signals were analyzed qualitatively and quantitatively (FIG. 2.1 A and C, 2.2 A and C). […] To determine the specificity of the [^18F]-2d and [^18F]-5d binding, kainic acid treated rats were co-injected with [^19F]-2e and [^19F]-5e, respectively.
# The autoradiographic signals were quantified. The signal intensity in a hippocampal region of interest (ROI) was measured and compared to a ROI in the cerebellum, that was used as reference region.
# PBR = PBR (Homo sapiens, UniProt P30536); experiment: PBR binding, [^3H]-PK11195
# [2] = target: CBR (central diazepine receptor); experiment: CBR binding, [^3H]-Flumazenil
# Chain of PBR (P30536 whole entry, species assumed): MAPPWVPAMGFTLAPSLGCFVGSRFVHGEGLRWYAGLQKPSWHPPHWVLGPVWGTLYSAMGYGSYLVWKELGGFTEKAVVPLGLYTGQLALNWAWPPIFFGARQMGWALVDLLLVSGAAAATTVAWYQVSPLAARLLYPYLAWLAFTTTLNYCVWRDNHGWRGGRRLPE
SMILES,"Hipp/Cereb ratio (signal-to-background ratio, hippocampus/cerebellum) [1]",Ki (PBR) [nM],Ki [2] [nM]
"COc1ccc(OCCF)c(CN(C(C)=O)c2cccnc2Oc2cccc(C)c2C)c1 [[^19F]-5e, N-[2-(2,3-dimethylphenoxy)pyridin-3-yl]-N-[2-(2-fluoroethoxy)-5-methoxybenzyl]acetamide]",5.6±1.8,2.57 ± 0.06,> 20000
"CCN(CC)C(=O)Cc1c(-c2ccc(OCCF)cc2)nn2c(C)cc(C)nc12 [[^19F]-DPA-714, reference compound]",–,1.46 ± 0.12,> 20000
"COc1ccc(OCCF)c(CN(C(C)=O)c2cc(F)ccc2Oc2ccccc2)c1 [[^19F]-FEDAA1106, reference compound]",–,1.5 ± 0.15,> 20000
